From patent US11578055B2, “Triazacyclododecansulfonamide (“TCD”)-based protein secretion inhibitors” (KEZAR LIFE SCIENCES, priority 2018, dated 2023)
Read-outs that look alike come from different tables or passages of the source.

Assays:
Type in all cases: cell-based
[1] = tested on: full length IL-2 (amino acids 1-153) fused to Gaussia Luciferase; assay: Dox Induced IL2-FL-Gluc Assay; settings: 24 hr, Dox inducible, 293FRT/TO cells; read-out: 24 hr Dox Inducible IL2FLGluc 293FRT/TO: Mean IC50
Method in brief: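 Flp-In 293 T-REx stable line expressing full-length IL-2 (aa 1-153) with C-terminal Gaussia luciferase fusion under doxycycline-inducible control. Cells plated the day before; compound dilutions added in DMSO/media containing doxycycline, incubated at 37° C, 5% CO2.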

[2] = tested on: IL-6; assay: Human PBMC Cytokine Assay: IL-6; settings: LPS stimulation, 24 hours
Procedure: (§1) Human PBMC were freshly isolated from whole blood collections of 3 normal donors utilizing density gradient centrifugation followed by red blood cell lysis. PBMC from each donor were assayed separately. Cells were suspended in RPMI 1640 media supplemented with 5% fetal bovine serum, 2 mM L-glutamine, 10 mM HEPES, and 1× penicillin/streptomycin. PBMC were seeded at 200,000 cells/well in 96-well round-bottom plates either without stimulation or with stimulation by lipopolysaccharide (LPS, 1 μg/mL) or antibodies against human CD3 (plate-bound, 2 μg/mL) and human CD28 (soluble, 2 μg/mL). Serial dilutions of compound in DMSO/media were simultaneously added and PBMC were incubated at 37° C., 5% CO2 for 24 hours. After 24 hours, plates were centrifuged and half of the supernatant volume removed for cytokine analysis by electrochemiluminescent immunoassay (U-PLEX® Biomarker Multiplex, Meso Scale Discovery). For viability analysis, CellTiter-Glo® (Promega) was added to the remaining material in each well and quantified via luminescent plate reader.

[3] = tested on: TNFα; assay: Human PBMC Cytokine Assay: TNFα; settings: anti-CD3/CD28 stimulation, 24 hours
Procedure: as §1

[4] = tested on: PD1 signal sequence plus 10 amino acids fused to Gaussia Luciferase (PD1-ss+10aa/Gaussia Luciferase); assay: Dox Induced PD1-ss-Gluc Assay; settings: 24 hr, Dox inducible, 293FRT/TO cells; read-out: 24 hr Dox Inducible PD1ssGluc 293FRT/TO: Mean IC50
Method in brief: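 Stable Flp-In 293 T-REx line expressing the fusion under tetracycline-inducible control, plated the day before assay. Compound dilutions added with doxycycline and incubated at 37 °C, 5% CO2; unspecified stereocentres mean data refer to stereoisomer mixtures.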

[5] = tested on: GM-CSF; assay: Human PBMC Cytokine Assay: GM-CSF; settings: anti-CD3/CD28 stimulation, 24 hours
Procedure: as §1

[6] = tested on: target signal sequences plus 10 amino acids fused to Gaussia Luciferase; assay: Transiently Expressed Dox Induced Signal Sequence-Gluc Assay; settings: read-out: Signal Sequence-Gluc potency
Procedure: FIp-In 293 T-REx™ cells were transfected with 500 ng pcDNA™5/FRT/TO plasmids inserted with cDNA encoding Gaussia Luciferase fused to the 3′ end of cDNA encoding target signal sequences plus 10 amino acids. Transfected cells were incubated overnight then cells were trypsinized and plated in 384-well tissue culture plates. The next day, compound dilutions in DMSO/media containing doxycycline were added to the wells and incubated at 37° C., 5% CO2.

[7] = Target ADAM10 signal peptide +10 amino acids
[8] = Target B7H3 signal peptide +10 amino acids
[9] = Target CD73 signal peptide +10 amino acids
[10] = Target CD96 signal peptide +10 amino acids
[11] = Target CTLA-4 signal peptide +10 amino acids
[12] = Target EGFR signal peptide +10 amino acids
[13] = Target GP130 signal peptide +10 amino acids
[14] = Target HER3 signal peptide +10 amino acids
[15] = Target IFN-a1 signal peptide +10 amino acids
[16] = Target IFN-a2 signal peptide +10 amino acids
[17] = Target IFN-a4 signal peptide +10 amino acids
[18] = Target IFN-b signal peptide +10 amino acids
[19] = Target IFNAR1 signal peptide +10 amino acids
[20] = Target IFNAR2 signal peptide +10 amino acids
[21] = Target IL-1R1 signal peptide +10 amino acids
[22] = Target IL-1R2 signal peptide +10 amino acids
[23] = Target IL-1Ra (isoform 1) signal peptide +10 amino acids
[24] = Target IL-2Ra (CD25) signal peptide +10 amino acids
[25] = Target IL-6R signal peptide +10 amino acids
[26] = Target IL-6 signal peptide +10 amino acids
[27] = Target IL-7R signal peptide +10 amino acids
[28] = Target IL-12b (p40) signal peptide +10 amino acids
[29] = Target IL-17Ra signal peptide +10 amino acids
[30] = Target IL-17a signal peptide +10 amino acids
[31] = Target IL-23R signal peptide +10 amino acids
[32] = Target IL-23a signal peptide +10 amino acids
[33] = Target LAG3 signal peptide +10 amino acids
[34] = Target PD-L1 signal peptide +10 amino acids
[35] = Target PDGFRa signal peptide +10 amino acids
[36] = Target TACE (ADAM17) signal peptide +10 amino acids
[37] = Target TIGIT signal peptide +10 amino acids
[38] = Target TIM3 signal peptide +10 amino acids
[39] = Target TNFR1 signal peptide +10 amino acids
[40] = Target TNFR2 signal peptide +10 amino acids
[41] = Target VEGF signal peptide +10 amino acids
[42] = Target VGFR2 signal peptide +10 amino acids
[43] = Target VISTA signal peptide +10 amino acids

SMILES: COc1cc(F)ccc1N1CCN(S(=O)(=O)N2CCCN(CC3CCCCC3)CCCN(S(=O)(=O)c3ccc(N(C)C)cc3)C[C@H](C)C2)C[C@H]1C [A177, 4-{[(3S)-9-(cyclohexylmethyl)-5-{[(3 R)-4-(4-fluoro-2-methoxyphenyl)-3-methylpiperazin-1-yl]sulfonyl}-3-methyl-1,5,9-triazacyclododecan-1-yl]sulfonyl}-N,N-dimethylaniline]
- IC50 [1]: 12.6 nM
- IC50 [2]: 24 nM
- IC50 [3]: 13 nM
- IC50 [4]: 4.95 nM
- IC50 [5]: 19 nM

SMILES: COc1cc(F)ccc1N1CCN(S(=O)(=O)N2CCCN(CC3CCCCC3)CCCN(S(=O)(=O)c3ccc(N(C)C)cc3)C[C@H](C)C2)CC1 [A137]
- IC50 [6, 7]: 127 nM
- IC50 [6, 8]: 9 nM
- IC50 [6, 9]: 44 nM
- IC50 [6, 10]: 7 nM
- IC50 [6, 11]: 112 nM
- IC50 [6, 12]: 47 nM
- IC50 [6, 13]: 161 nM
- IC50 [6, 14]: 57 nM
- IC50 [6, 15]: 57 nM
- IC50 [6, 16]: 44 nM
- IC50 [6, 17]: 89 nM
- IC50 [6, 18]: 288 nM
- IC50 [6, 19]: 6 nM
- IC50 [6, 20]: 42 nM
- IC50 [6, 21]: 282 nM
- IC50 [6, 22]: 17 nM
- IC50 [6, 23]: 47 nM
- IC50 [6, 24]: 55 nM
- IC50 [6, 25]: 48 nM
- IC50 [6, 26]: 38 nM
- IC50 [6, 27]: 16 nM
- IC50 [6, 28]: 74 nM
- IC50 [6, 29]: 176 nM
- IC50 [6, 30]: 216 nM
- IC50 [6, 31]: 47 nM
- IC50 [6, 32]: 223 nM
- IC50 [6, 33]: 48 nM
- IC50 [6, 34]: 19 nM
- IC50 [6, 35]: 37 nM
- IC50 [6, 36]: 40 nM
- IC50 [6, 37]: 79 nM
- IC50 [6, 38]: 132 nM
- IC50 [6, 39]: 152 nM
- IC50 [6, 40]: 186 nM
- IC50 [6, 41]: 51 nM
- IC50 [6, 42]: 213 nM
- IC50 [6, 43]: 150 nM
- IC50 [1]: 21.4 nM
- IC50 [2]: 12 nM
- IC50 [3]: 17 nM
- IC50 [4]: 8.3 nM
- IC50 [5]: 25 nM

SMILES: C[C@H]1CN(S(=O)(=O)c2ccc(N(C)C)cc2)CCCN(CC2CCCCC2)CCCN(S(=O)(=O)N2CCc3c(C#N)cccc3C2)C1 [A151, 2-{[(3S)-9-(cyclohexylmethyl)-5-[4-(dimethylamino)benzenesulfonyl]-3-methyl-1,5,9-triazacyclododecan-1-yl]sulfonyl}-1,2,3,4-tetrahydroisoquinoline-5-carbonitrile]
- IC50 [6, 7]: 849 nM
- IC50 [6, 8]: 201 nM
- IC50 [6, 9]: 375 nM
- IC50 [6, 10]: 107 nM
- IC50 [6, 11]: 1140 nM
- IC50 [6, 12]: 412 nM
- IC50 [6, 13]: 969 nM
- IC50 [6, 14]: 522 nM
- IC50 [6, 15]: 820 nM
- IC50 [6, 16]: 404 nM
- IC50 [6, 17]: 1130 nM
- IC50 [6, 18]: 4300 nM
- IC50 [6, 19]: 145 nM
- IC50 [6, 20]: 778 nM
- IC50 [6, 21]: 1470 nM
- IC50 [6, 22]: 168 nM
- IC50 [6, 23]: 666 nM
- IC50 [6, 24]: 876 nM
- IC50 [6, 25]: 445 nM
- IC50 [6, 26]: 437 nM
- IC50 [6, 27]: 392 nM
- IC50 [6, 28]: 913 nM
- IC50 [6, 29]: 1860 nM
- IC50 [6, 30]: 1820 nM
- IC50 [6, 31]: 666 nM
- IC50 [6, 32]: 1920 nM
- IC50 [6, 33]: 464 nM
- IC50 [6, 34]: 366 nM
- IC50 [6, 35]: 565 nM
- IC50 [6, 36]: 391 nM
- IC50 [6, 37]: 737 nM
- IC50 [6, 38]: 1350 nM
- IC50 [6, 39]: 1620 nM
- IC50 [6, 40]: 2110 nM
- IC50 [6, 41]: 645 nM
- IC50 [6, 42]: 2590 nM
- IC50 [6, 43]: 911 nM
- IC50 [1]: 306 nM
- IC50 [4]: 153 nM
